Source: patent US20250257075A1, “MACROCYCLIC INHIBITORS OF KRAS FOR THE TREATMENT OF CANCER” (Hoffmann-La Roche Inc., priority 2022, published 2025)

Key:
Format in all cases: cell-based, human
[1] = tested on: phosphorylation of ERK, KRAS G12C in NCI-H358 cells; test: pERK inhibition assay, G12C; settings: Homo sapiens; NCI-H358, 4 hours of incubation
Description: (§1) This assay is to measure the ability of test compounds in inhibiting the phosphorylation of ERK, the downstream signaling of KRAS G12C in NCI-H358 cells, KRAS G12D in AGS cells, and KRAS G12V in SW620. NCI-H358 (ATCC-CRL5807) cells, AGS (ATCC-CRL-1739) cells, SW620 (ATCC-CCL-227) cells were all grown and maintained using RPMI-1640 medium (Thermo Fisher Scientific) with 10% fetal bovine serum and 1% penicillin/streptomycin. On the day prior to compound addition, cells were plated in tissue culture-treated 96 well plates (Corning-3699) at a density of 30,000 cell/well, 20,000 cell/well, 30,000 cell/well for NCI-H358, AGS and SW620 respectively, and allowed for attachment overnight. Diluted compounds were then added in a final concentration of 0.5% DMSO. After 4 hours of incubation, the medium was removed, 100 μL of 4% formaldehyde was added, and the assay plates were incubated at room temperature for 20 minutes. The plates were then washed once with phosphate buffered saline (PBS), and permeabilized with 100 μL of chilled methanol for 10 minutes. Non-specific antibody binding to the plates was blocked using 50 μL 1×BSA blocking buffer (Thermo-37520, 10-fold dilution by Phosphate-Buffered Saline Tween (PBST) for at least 1 hour at room temperature.
(§2) The amount of phosphor-ERK was determined using an antibody specific for phosphorylated form of ERK. Primary antibody (pERK, CST-4370, Cell Signaling Technology) was diluted 1:300 in blocking buffer, with 50 μL aliquoted to each well, and incubated overnight at 4° C. Cells was washed five times for 5 minutes with PBST. Secondary antibody (HRP-linked anti-rabbit IgG, CST-7074, Cell Signaling Technology) was diluted 1:1000 in blocking buffer, and 50 μL was added to each well and incubated 1-2 hrs at room temperature. Cells was washed 5 times for 5 minutes with PBST, 100 μL TMB ELISA substrate (abcam-ab171523) were added and gently shake for 20 minutes. 50 μL stop solution (abcam-ab171529) were added, and then read the signal (OD450) by EnVision.
(§3) IC50 was determined by fitting a 4-parameter sigmoidal concentration response model.

[2] = tested on: phosphorylation of ERK, KRAS G12D in AGS cells; test: pERK inhibition assay, G12D; settings: Homo sapiens, 4 hours of incubation
Description: as §1, §2, §3

[3] = tested on: phosphorylation of ERK, KRAS G12V in SW620; test: pERK inhibition assay, G12V; settings: Homo sapiens, SW-620; SW620, 4 hours of incubation
Description: as §1, §2, §3

CCn1c(-c2cc(N3CCN(CC(F)(F)F)CC3)cnc2[C@H](C)OC)c2c3cc(c(F)cc31)-c1csc(n1)C[C@H](NC(=O)[C@H](C(C)C)N(C)C(=O)N1CC(C#CC(F)(F)F)C1)C(=O)N1CCC[C@H](N1)C(=O)OCC(C)(C)C2 (atropisomer, axis not shown; (M)) [Example 15, N-[(1S)-1-[[(7S,13S)-21-ethyl-24-fluoro-(20M)-20-[2-[(1S)-1-methoxyethyl]-5-[4-(2,2,2-trifluoroethyl)piperazin-1-yl]-3-pyridyl]-17,17-dimethyl-8,14-dioxo-15-oxa-4-thia-9,21,27,28-tetrazapentacyclo[17.5.2.1^2,5.1^9,13.0^22,26]octacosa-1(25),2,5(28),19,22(26),23-hexaen-7-yl]carbamoyl]-2-methyl-propyl]-N-methyl-3-(3,3,3-trifluoroprop-1-ynyl)azetidine-1-carboxamide]
IC50 [1]: 0.02 µM
IC50 [2]: > 10 µM
IC50 [3]: 0.021 µM
